Assay results taken from PubChem BioAssay AID624167 (Sanford-Burnham Center for Chemical Genomics, 2012).
The source made the active and inactive calls.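 How the source made its calls: active means mean IC50 for reducing PEG3 promoter reporter signal at or below a set limit, with IC50 above the limit in both counter screens; inactive means the rest, including counter screen hits.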

Legend:
Assay in all cases: inhibition of PEG-3 promoter-driven reporter – cell-based, HeLa, luciferase, CREF/GAPDH counter-screen panel, dose response (AID 624167)
[1] = molecular target: PEG-3 (UniProt Q6IN02); conditions: HeLa PEG-Prom luciferase reporter, overnight, CREF/GAPDH counter-screens, mean of runs
Sequence of PEG-3 (UniProt Q6IN02) (Q6IN02 whole entry, looked up): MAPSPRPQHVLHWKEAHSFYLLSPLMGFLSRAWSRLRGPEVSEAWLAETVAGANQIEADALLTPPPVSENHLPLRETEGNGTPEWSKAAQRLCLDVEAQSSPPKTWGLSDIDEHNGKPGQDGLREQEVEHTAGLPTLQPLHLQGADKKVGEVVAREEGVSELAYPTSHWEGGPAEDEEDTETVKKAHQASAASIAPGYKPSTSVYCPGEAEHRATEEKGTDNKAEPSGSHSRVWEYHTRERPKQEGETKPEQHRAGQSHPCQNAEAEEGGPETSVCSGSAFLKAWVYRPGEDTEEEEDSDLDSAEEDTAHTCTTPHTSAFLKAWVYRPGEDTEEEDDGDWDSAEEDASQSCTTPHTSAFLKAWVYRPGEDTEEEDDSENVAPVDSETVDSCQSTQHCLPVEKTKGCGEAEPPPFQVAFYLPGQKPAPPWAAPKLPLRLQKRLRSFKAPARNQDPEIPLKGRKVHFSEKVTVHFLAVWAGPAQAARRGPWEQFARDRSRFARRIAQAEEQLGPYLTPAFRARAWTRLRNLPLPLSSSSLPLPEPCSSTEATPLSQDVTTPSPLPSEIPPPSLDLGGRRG

[2] = system: PEG-3; conditions: HeLa PEG-Prom luciferase reporter, overnight, CREF/GAPDH counter-screens
[3] = system: Rat fibroblasts (CREF); conditions: CREF/GAPDH counter-screens
[4] = run 1, dose range 1, individual replicate IC50 per panel
[5] = run 2, dose range 1, individual replicate IC50 per panel

Compound	IC50 [1]	IC50 [2, 4] [nM]	IC50 [2, 5] [nM]	IC50 ([3]; mean of runs) [nM]	IC50 [3, 4] [nM]	IC50 [3, 5] [nM]
Cc1nc(SCC(=O)Nc2nc3ccccc3s2)c(C#N)c(C)c1C	4130 nM	8050	< 200	7900	232	15600
Cc1ccc(C(=O)Nc2cc3ccccc3oc2=O)cc1	665 nM	327	1000	1660	409	2900
CC(C)CC(=NNC(=O)c1ccncc1)c1cc(Cl)ccc1O	3410 nM	3350	3460	10300	8210	12300
COc1ccc(C(=O)NNC(=O)c2ccccn2)cc1	1760 nM	2680	849	1650	1210	2090
COc1ccccc1C(=O)Nc1nc2ccccc2s1	574 nM	515	633	489	348	631
Cc1cc(S(=O)(=O)c2ccc(Cl)cc2)nc(S(=O)(=O)c2ccc(Cl)cc2)c1C#N	5140 nM	6140	4140	13100	10900	15300
CN(C)CCCN(C(=O)c1ccc(S(=O)(=O)N2CCc3ccccc3C2)cc1)c1nc2ccc(F)cc2s1	10000 nM	11300	8740	13400	9840	17000
O=C1C(Cl)=C(Nc2ccccc2)C(=O)c2ccccc21	7180 nM	12500	1900	7130	4480	9780
CC(=O)N1CCCC(c2cc(C(=O)Nc3ccccc3)no2)C1 (stereo unspecified)	6410 nM	4870	7940	9510	9260	9760
COc1ccc(/C=C/c2nc3ccccc3n2C)cc1	1910 nM	1280	2540	3460	3410	3510
O=C(Nc1cccc(C(=O)O)c1)Nc1ccc2c(c1)OCO2	8340 nM	3500	13200	17400	14200	20700
O=C(Nc1nc2cc3c(cc2s1)OCO3)C1=COCCO1	1970 nM	1680	2250	2290	1920	2660
COc1ccc(-c2nc(-c3ccccn3)no2)cc1	552 nM	765	338	529	472	586
O=C(Nc1nc2cc3c(cc2s1)OCCO3)C1=COCCO1	526 nM	431	622	924	575	1270
COCCn1c(C)cc(C(=O)COC(=O)c2cccc(O)c2)c1C	10800 nM	16100	5480	611	468	755
C/C(=N/NC(=O)c1cc(C2CC2)[nH]n1)c1cccs1	6810 nM	5930	7690	3840	3850	3830
O=C(NCCc1ccccc1)c1ccc2c(c1)OCCO2	636 nM	646	625	1730	1360	2100
CN[C@H]1C[C@H]2c3[nH]c4ccc(-c5ccc(OC)cc5)cc4c3CCN2C(=O)[C@H]1[C@H](C)O	10500 nM	12500	8390	16100	16900	15300
CCCCCN1C=CC(=C2C(=O)c3ccccc3C2=O)C=C1	1240 nM	1080	1400	729	371	1090
Cc1ccc(-c2cn3cc(C)ccc3n2)cc1	722 nM	729	715	1280	1010	1540
Cc1ccc(C(=O)Nc2cnc3ccccc3c2)cc1	499 nM	416	582	3890	3520	4260
O=C(Nc1cc(S(=O)(=O)N2CCOCC2)ccc1Cl)c1cc([N+](=O)[O-])ccc1Cl	8460 nM	14800	2160	19000	31800	6140
Cc1cc(C(=O)COC(=O)c2ccccc2O)c(C)n1CC1CCCO1 (stereo unspecified)	inactive	1240	> 100000	3390	3340	3440

Compound	IC50 [1]	IC50 [2, 4] [nM]	IC50 [2, 5] [nM]	IC50 ([3]; mean of runs) [nM]	IC50 [3, 4] [nM]	IC50 [3, 5] [nM]
O=C(/C=C\Nc1ccc2c(c1)OCO2)c1ccccn1	1510 nM	1150	1870	1090	1040	1140
CCN1C=CC(=C2C(=O)c3ccccc3C2=O)C=C1	957 nM	834	1080	850	947	753
CN=c1scc(-c2cccs2)n1/N=C/c1ccccc1O	inactive	260	> 100000	5440	5280	5600
O=C(O)c1cccc(COc2ccc3c(c2)CCC3)c1	1350 nM	823	1880	10300	10700	9920
CCOC(=O)Cc1csc(NC(=S)NC(=O)c2ccc(Cl)cc2)n1	5620 nM	7550	3680	4970	4160	5770
CCCN1C=CC(=C2C(=O)c3ccccc3C2=O)C=C1	538 nM	783	292	538	469	606
Cc1ccc(-c2cc3c(nn2)-c2ccccc2C3=O)cc1	2760 nM	2560	2950	337	270	403
CN=c1scc(-c2ccccc2F)n1/N=C/c1ccc[nH]1	inactive	4900	> 100000	4520	4400	4630
Cc1ccc(-c2nc(-c3ccccn3)no2)cc1Cl	1640 nM	1190	2090	1310	1220	1400
O=C(Nc1ccc([N+](=O)[O-])cc1)C(=O)Nc1cccc(C(=O)O)c1	1230 nM	1050	1400	2670	2350	3000
COC(=O)c1c(N)sc(C(=O)NCCc2ccccc2)c1C	2460 nM	2220	2690	3880	4380	3380
c1ccc(-c2noc(-c3ccc4c(c3)OCO4)n2)nc1	818 nM	622	1010	694	309	1080
CCOc1ccc(NC(=O)Nc2cccc(C(=O)O)c2)cc1	3240 nM	2900	3580	4090	3070	5100
O=C(O)c1cccc(COc2ccccc2Cl)c1	1830 nM	679	2970	20200	38800	1550
Cc1c(C)c2ccc(OCC(=O)Nc3ccccn3)c(C)c2oc1=O	1200 nM	1640	767	1650	1440	1860
CCCS(=O)(=O)c1cnc(C2COc3ccccc3O2)nc1N (stereo unspecified)	3780 nM	2520	5040	10800	9070	12500
Cc1ccc(-c2cc3c(N=O)c4ccccc4c-3n[nH]2)cc1	1030 nM	1200	860	18800	2730	34900
Cc1cc(C)c2nc(NNC(=O)c3ccc(S(=O)(=O)N4CC(C)CC(C)C4)cc3)sc2c1 (stereo unspecified)	5170 nM	7330	3010	8650	13900	3360
CCn1nc(C)cc1-c1nnc(Sc2ncc([N+](=O)[O-])s2)n1C	6370 nM	8650	4090	4870	5310	4430
C(=Cc1cnc2ccccc2n1)c1ccc2c(c1)OCO2	1490 nM	1700	1270	1120	1020	1210
CCOc1ccc(-c2ccc(SC)nn2)cc1	4150 nM	2870	5430	473	313	632
Brc1ccc(N/N=C(/N=Nc2nn[nH]n2)c2ccccc2)cc1	1000 nM	760	1240	10200	10000	10400
CCOc1ccc2c(ccc(/C=C/c3cc(C)c4cccnc4c3O)[n+]2C)c1	5090 nM	4300	5880	11800	11900	11700
